Legend:
d-U937 cells = assay: Cell viability: MTT assay in differentiated U937 cells; format: cell-based, human; details: 10 μg/mL
In short: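 Viability loss, calculated against 0.5% DMSO vehicle (gains reported negative), was measured by MTT reduction (1 h) and A550 after DMSO solubilisation. Compound exposure of d-U937 cells was 10 μg/mL final, for 24 h in 10% FCS or 4 h in 5% FCS RPMI1640.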

[1] = tested on: ICAM-1 expression in BEAS2B cells; assay: Poly I:C-induced ICAM-1 expression in BEAS2B cells; format: cell-based; details: Homo sapiens, BEAS-2B, read-out: PolyIC/ICAM1 IC50 (BEAS2B)
Protocol: Poly I:C was used in these studies as a simple, RNA virus mimic. Poly I:C-Oligofectamine mixture (2% Oligofectamine±1 μg/mL Poly I:C, 25 μL; Life Technologies and Invivogen Ltd., San Diego, Calif., respectively) was transfected into BEAS2B cells (human bronchial epithelial cells, ATCC). Cells were pre-incubated with final concentrations of test compounds for 2 h and the level of ICAM-1 expression on the cell surface was determined by cell-based ELISA. At a time point 18 h after poly I:C transfection, cells were fixed with 4% formaldehyde in PBS (100 μL) and then endogenous peroxidase was quenched by the addition of washing buffer (100 μL, 0.05% Tween in PBS: PBS-Tween) containing 0.1% sodium azide and 1% hydrogen peroxide. Cells were washed with wash-buffer (3×200 μL). After blocking the wells with 5% milk in PBS-Tween (100 μL) for 1 h, the cells were incubated with anti-human ICAM-1 antibody (50 μL; Cell Signaling Technology, Danvers, Mass.) in 1% BSA PBS overnight at 4° C.
The cells were washed with PBS-Tween (3×200 μL) and incubated with the secondary antibody (100 μL; HRP-conjugated anti-rabbit IgG, Dako Ltd., Glostrup, Denmark). The cells were then incubated with of substrate (50 μL) for 2-20 min, followed by the addition of stop solution (50 μL, 1N H2SO4). The ICAM-1 signal was detected by reading the absorbance at 450 nm against a reference wavelength of 655 nm using a spectrophotometer. The cells ware then washed with PBS-Tween (3×200 μL) and total cell numbers in each well were determined by reading absorbance at 595 nm after Crystal Violet staining (50 μL of a 2% solution in PBS) and elution by 1% SDS solution (100 μL) in PBS. The measured OD 450-655 readings were corrected for cell number by dividing with the OD595 reading in each well. The inhibition of ICAM-1 expression was calculated at each concentration of test compound by comparison with vehicle control.

Syk = target: T1, Syk (Homo sapiens, UniProt P43405); assay: Syk enzyme inhibition (Z-LYTE FRET); format: biochemical; details: Table 2A
T1 construct: purchased Life Technologies
Protocol: (§1) The enzyme inhibitory activities of compounds disclosed herein were determined by FRET using synthetic peptides labelled with both donor and acceptor fluorophores (Z-LYTE, Life Technologies, Paisley, UK).
(§2) The relevant enzyme (1000 ng/mL, 1400 ng/mL or 2000 ng/mL respectively, 2.5 μL) was incubated with the test compound (either 40 μg/mL, 12 μg/mL, 4 μg/mL, 1.2 μg/mL, 0.4 μg/mL, 0.12 μg/mL, 0.04 μg/mL, 0.012 μg/mL, 0.004 μg/mL or 0.0012 μg/mL, 2.5 μL each) for 2 h at RT. The FRET peptides (8 μM, 2.5 μL), and appropriate ATP solutions (2.5 μL, 800 μM for c-Src, and 60 μM ATP for HCK and Syk) were then added to the enzyme/compound mixtures and incubated for 1 h at RT. Development reagent (protease, 5 μL) was added for 1 h prior to detection in a fluorescence microplate reader (EnVision, Perkin Elmer).
(§3) In all cases, the site-specific protease cleaves non-phosphorylated peptide only and eliminates the FRET signal. Phosphorylation levels of each reaction were calculated using the ratio of coumarin emission (donor) over fluorescein emission (acceptor), for which low ratios indicate high phosphorylation and high ratios indicate low phosphorylation levels.

c-Src = target: T2, c-Src (Homo sapiens, UniProt P12931); assay: c-Src enzyme inhibition (Z-LYTE FRET); format: biochemical; details: Table 2A
T2 construct: purchased Life Technologies
T2 sequence (P12931 whole entry): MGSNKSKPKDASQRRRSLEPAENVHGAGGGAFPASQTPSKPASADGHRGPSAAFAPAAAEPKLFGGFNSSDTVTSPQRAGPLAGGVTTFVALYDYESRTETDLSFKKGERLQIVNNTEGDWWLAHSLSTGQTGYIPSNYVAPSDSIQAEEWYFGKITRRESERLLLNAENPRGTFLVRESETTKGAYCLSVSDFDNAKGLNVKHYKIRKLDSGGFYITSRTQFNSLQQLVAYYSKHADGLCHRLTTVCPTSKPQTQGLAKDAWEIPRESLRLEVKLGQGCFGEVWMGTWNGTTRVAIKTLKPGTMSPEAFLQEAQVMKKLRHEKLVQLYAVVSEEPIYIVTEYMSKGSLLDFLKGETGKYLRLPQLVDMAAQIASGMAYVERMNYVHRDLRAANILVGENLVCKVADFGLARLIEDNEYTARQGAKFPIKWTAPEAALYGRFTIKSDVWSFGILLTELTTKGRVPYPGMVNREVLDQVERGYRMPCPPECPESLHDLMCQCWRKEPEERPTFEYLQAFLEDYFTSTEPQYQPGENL
Protocol: as §1, §2, §3

IC50 (Syk) [nM]	IC50 (c-Src) [nM]	SMILES	MTT Assay Cell viability at time point indicated in d-U937 Cells, 4 h (d-U937 cells)	MTT Assay Cell viability at time point indicated in d-U937 Cells, 24 h (d-U937 cells)	IC50 [1] [nM]
> 16300	153	COc1ccc(-n2nc(C(C)(C)C)cc2NC(=O)Nc2ccc(OCc3ccnc(Nc4cnccn4)c3)c3ccccc23)cc1 [Example 38]	− (−ve and +ve indicate the value is below and above, respectively, the no significant effect threshold defined as 30% inhibition at 10 μg/mL at the time point indicated)	− (−ve and +ve indicate the value is below and above, respectively, the no significant effect threshold defined as 30% inhibition at 10 μg/mL at the time point indicated)	75.5
2150	33	COc1ccc(-n2nc(C(C)(C)C)cc2NC(=O)Nc2ccc(OCc3ccnc(Nc4cnc(CO)cn4)c3)c3ccccc23)cc1 [Example 23]	− (−ve and +ve indicate the value is below and above, respectively, the no significant effect threshold defined as 30% inhibition at 10 μg/mL at the time point indicated)	+ (−ve and +ve indicate the value is below and above, respectively, the no significant effect threshold defined as 30% inhibition at 10 μg/mL at the time point indicated)	33.5
> 14600	28	Cc1ccc(-n2nc(C(C)(C)C)cc2NC(=O)Nc2ccc(OCc3ccnc(Nc4cnc(CC(=O)N(C)C)cn4)c3)c3ccccc23)cc1 [Example 29]	− (−ve and +ve indicate the value is below and above, respectively, the no significant effect threshold defined as 30% inhibition at 10 μg/mL at the time point indicated)	+ (−ve and +ve indicate the value is below and above, respectively, the no significant effect threshold defined as 30% inhibition at 10 μg/mL at the time point indicated)	43
> 15200	358	CNC(=O)c1cnc(Nc2cc(COc3ccc(NC(=O)Nc4cc(C(C)(C)C)nn4-c4ccc(C)cc4)c4ccccc34)ccn2)cn1 [Example 7, 5-((4-(((4-(3-(3-(tert-Butyl)-1-(p-tolyl)-1H-pyrazol-5-yl)ureido)naphthalen-1-yl)oxy)methyl)pyridin-2-yl)amino)-N-methylpyrazine-2-carboxamide]	+ (−ve and +ve indicate the value is below and above, respectively, the no significant effect threshold defined as 30% inhibition at 10 μg/mL at the time point indicated)	+ (−ve and +ve indicate the value is below and above, respectively, the no significant effect threshold defined as 30% inhibition at 10 μg/mL at the time point indicated)	> 1520
> 15900	82	COc1ccc(-n2nc(C(C)(C)C)cc2NC(=O)Nc2ccc(OCc3ccnc(Nc4cnccn4)c3)c3ccccc23)cc1C [Example 39]	− (−ve and +ve indicate the value is below and above, respectively, the no significant effect threshold defined as 30% inhibition at 10 μg/mL at the time point indicated)	− (−ve and +ve indicate the value is below and above, respectively, the no significant effect threshold defined as 30% inhibition at 10 μg/mL at the time point indicated)	46.6
> 16000	600	Cc1ccc(-n2nc(C(C)(C)C)cc2NC(=O)Nc2ccc(OCc3ccnc(Nc4cncc(C#N)n4)c3)c3ccccc23)cc1 [Example 11]	− (−ve and +ve indicate the value is below and above, respectively, the no significant effect threshold defined as 30% inhibition at 10 μg/mL at the time point indicated)	− (−ve and +ve indicate the value is below and above, respectively, the no significant effect threshold defined as 30% inhibition at 10 μg/mL at the time point indicated)	> 1600
> 15600	29	Cc1ccc(-n2nc(C(C)(C)C)cc2NC(=O)Nc2ccc(OCc3ccnc(Nc4cncc(N(C)C)n4)c3)c3ccccc23)cc1 [Example 14]	− (−ve and +ve indicate the value is below and above, respectively, the no significant effect threshold defined as 30% inhibition at 10 μg/mL at the time point indicated)	− (−ve and +ve indicate the value is below and above, respectively, the no significant effect threshold defined as 30% inhibition at 10 μg/mL at the time point indicated)	64.3
> 15000	459	Cc1ccc(-n2nc(C(C)(C)C)cc2NC(=O)Nc2ccc(OCc3ccnc(Nc4cncc(C5CCCC5)n4)c3)c3ccccc23)cc1 [Example 48]	− (−ve and +ve indicate the value is below and above, respectively, the no significant effect threshold defined as 30% inhibition at 10 μg/mL at the time point indicated)	− (−ve and +ve indicate the value is below and above, respectively, the no significant effect threshold defined as 30% inhibition at 10 μg/mL at the time point indicated)	92.5
9160	42	Cc1cc(-n2nc(C(C)(C)C)cc2NC(=O)Nc2ccc(OCc3ccnc(Nc4cncc(C5CC5)n4)c3)c3ccccc23)cs1 [Example 27]	− (−ve and +ve indicate the value is below and above, respectively, the no significant effect threshold defined as 30% inhibition at 10 μg/mL at the time point indicated)	+ (−ve and +ve indicate the value is below and above, respectively, the no significant effect threshold defined as 30% inhibition at 10 μg/mL at the time point indicated)	71.2
6130	11000	CC(C)c1ccc(-n2nc(C(C)(C)C)cc2NC(=O)Nc2ccc(OCc3ccnc(Nc4cnccn4)c3)c3ccccc23)cc1 [Example 41]	− (−ve and +ve indicate the value is below and above, respectively, the no significant effect threshold defined as 30% inhibition at 10 μg/mL at the time point indicated)	− (−ve and +ve indicate the value is below and above, respectively, the no significant effect threshold defined as 30% inhibition at 10 μg/mL at the time point indicated)	> 1600
> 15700	2520	Cc1ccc(-n2nc(C(C)(C)C)cc2NC(=O)Nc2ccc(OCc3ccnc(Nc4cnc(C5CC5)cn4)c3)c3ccccc23)cc1 [Example 16]	− (−ve and +ve indicate the value is below and above, respectively, the no significant effect threshold defined as 30% inhibition at 10 μg/mL at the time point indicated)	− (−ve and +ve indicate the value is below and above, respectively, the no significant effect threshold defined as 30% inhibition at 10 μg/mL at the time point indicated)	> 1560

From patent US11142515B2, “Pyrazolyl-ureas as kinase inhibitors” (RESPIVERT LIMITED, priority 2014, dated 2021)
